Data on four molecules can be found in patent US20240294570A1, “ENZYMATICALLY FORMING INTRANUCLEAR PEPTIDE ASSEMBLIES FOR SELECTIVELY KILLING INDUCED PLURIPOTENT STEM CELLS” (BRANDEIS UNIVERSITY, priority 2021, published 2024).

Non-standard residues stand in square brackets, D forms with d. Residues, ends and D or L forms follow the SMILES beside them. No end group written: not given here. *: point of attachment. pY = N[C@@H](Cc1ccc(OP(=O)(O)O)cc1)C(=O)O; NBD = O=[N+]([O-])c1ccc(*)c2nonc12; βAla = NCCC(=O)O

Series [1] in a line: Enzymatic self-assembly in vitro, nanostructures by TEM. The class given is physicochemical. Conditions: for diameters of nanofibers: after dephosphorylation at 400 μM by ALP (0.5 U/mL). On the procedure:
TEM Sample Preparation: After placing 5 μL samples on 400 mesh copper grids coated with continuous thick carbon film (˜35 nm) which is glowed discharged, we washed the grid with ddH2O and UA (uranyl acetate). The sample loaded grid was stained with the UA. The residual UA was removed by filter paper and then dried in air. TEM images were obtained with Morgagni 268 transmission electron microscope.
After obtaining all the precursors, their behaviors for EISA were evaluated in vitro using transmission electron microscopes (TEM) to examine the nanostructures formed before and after the ALP catalyzed dephosphorylation of precursors 5, 7, and 9. […] The critical micelle concentration (CMC) of 5 is 86.1 μM. […] The CMC of 6 is 8.1 μM. Unlike the case of 5, dephosphorylation of 7 or 9 at 400 μM by ALP (0.5 U/mL) produces nanofibers with the diameters of 6±2 nm or 9±2 nm, whose CMC is 87.4 μM or 25.8 μM, respectively.
A key requirement for selectively eliminating iPSCs by EISA is that the L-peptide nanoribbons only form on and in iPSCs, which overexpress ALP, but not on and in the differentiated cells that express normal level of ALP. That is, L-peptide nanoribbons should only rapidly form at high level of ALP, but not at normal level of ALP. […] Thus, after assessing the level of ALP expression in iPSCs, it should be possible to optimizing the initial concentration of a peptide and the time of dephosphorylation, to promote EISA that selectively targets iPSCs.

Series [2] can be described thus: Critical micelle concentration (CMC) measurement with pyrene probe. The class given is physicochemical. Conditions: for CMC of the nanofiber-forming product of dephosphorylation: product after dephosphorylation at 400 μM by ALP (0.5 U/mL). On the procedure: Critical Micelle Concentration ((MC) Measurement: The CMCs were determined using pyrene as the fluorescent probe. Different concentrations of compounds were prepared in pyrene-saturate solutions. The fluorescence spectra of pyrene solutions with different concentration compounds were obtained. The intensity ratio of 378 nm/393 nm (I378/I393) was determined by a Synergy H1 hybrid multi-mode microplate reader. Plot I378/I393 against the concentrations of compounds. The concentration at the turning point is the CMC.

The nature of series [3]: Degradation in HS-5 cell lysate (LC-MS).
For series [4], the system named is iPSCs. The series is described as follows: CLSM imaging of peptide assemblies in iPSCs. Type of series: cell-based, human. Conditions: 400 μM, 2 hours. On the procedure: Confocal Laser Scanning Microscopy (CLSM) Imaging: For live cell imaging, cells in exponential growth phase were seeded in a confocal dish (3.5 cm) at 1.0×10^5 cells per dish and then incubated in incubator for 24 h. We removed culture medium, and added fresh medium containing precursors for different time points. After removing the medium and washing the cells with live cell imaging solution (2 mL×2), the cells were used for CLSM imaging. For time-dependent live cell imaging, cells in exponential growth phase were seeded in a confocal dish (3.5 cm) at 1.0×10^5 cells per dish and then incubated in incubator for 24 h. After removing culture medium, we treated the cells with 1 mL of Hoechst 33342 (1 μg mL^−1) for 10 minutes. After being washed with culture medium (2 mL×2), the cells were incubated with fresh medium containing precursor 5 in a Tokai Hit stage top incubator (STXF-WSKMX-SET) to be used for CLSM imaging. All the CLSM images were obtained using Zeiss LSM 880 confocal microscopy at the lens of 63× with oil. The lasers used are 405 nm and 488 nm.
Because the fluorescence of NBD increases drastically from unassembled to assembled state, confocal laser scanning microscopy (CLSM) was suitable to reveal the cellular location of the peptide assemblies formed after dephosphorylation catalyzed by ALP. […] The blackness in nuclei overlaps well with the strong fluorescence. […] The results confirms that the nucleus-targeting mainly originates from the ALP catalyzed dephosphorylation.
To trace the dynamics of the formation and distribution of 5 inside iPSC cells, time-lapse CLSM was also used to image the changes of the fluorescence in the iPSCs incubated by 5 (400 μM). Using one cell as a representative case, after 6 minutes incubation fluorescent puncta appear on the membrane, likely originating from the aggregates of assemblies of 5 and those of 6 generated by the dephosphorylation catalyzed by ALP. […] After 24 minutes incubation, fluorescence starts to grow in the cytoplasm. Considering the LLLLY motif in SEQ ID NO: 2 constitutes the transmembrane domains of 18 human membrane proteins, it is possible that the affinity of 5 or 6 to membrane allows the assemblies of the mixture of 5 and 6 to interact with cellular membranes, which then facilitates nuclear localization. At about 28 minutes of incubation, fluorescence appears in the nucleus. Moreover, the nuclei shrink after the assemblies emerge in the nuclei. In addition, the nuclei also show nuclear blebbing (Stephens et al., “Chromatin Histone Modifications and Rigidity Affect Nuclear Morphology Independent of Lamins,” Mol. Biol. Cell 29(2):220-233 (2018), which is hereby incorporated by reference in its entirety). The shrinkage of nuclei and nuclear blebbing likely associate with iPSC death. To further examine the dynamics of EISA-formed peptide assemblies in iPSCs over different time, the increase of fluorescence in two cells over 2 hours was monitored; their nuclei, A and B, are shown in FIG. 10A. […] The mean fluorescent intensity in Nucleus A starts to increase at 28 minutes and levels off after 110 minutes. For Nucleus B, the mean fluorescent intensity keeps increasing from 38 minutes. The increases of the fluorescence in the nuclei and nucleoli are synchronous. […] The assemblies inside the nuclei or near nuclear membrane induce nuclear blebbing and shrinkage of nuclei, which likely contributes to the cell death.

Series [5] relates to iPSCs. The series is described as follows: Cell viability of iPSCs (trypan blue). Type of series: cell-based, human. As to conditions: 400 μM, 2 h. On the procedure: Cell Culture: Human induced pluripotent stem cell line A21 was generated from human normal dermal fibroblasts by using the StemRNA™-NM Reprogramming kit (Stemgent, Cat #00-0076). hiPSCs were routinely cultured and passaged on 6-well plates coated with 0.25 μg/cm^2 iMatrix-511 (Recombinant Laminin-511) (ReproCell) with NutriStem XF/FFTM medium (Biological Industries). HS-5 cell line and HEK293 cell line were purchased from American Type Culture Collection (ATCC, USA). HS-5 cells were cultured in Dulbecco's Modified Eagle Medium (DMEM) supplemented with 10% fetal bovine serum (FBS), 100 U/mL penicillin and 100 μg/mL streptomycin. HEK293 cells were cultured in Minimal Essential Medium (MEM) supplemented with 10% fetal bovine serum (FBS), 100 U/mL penicillin and 100 μg/mL streptomycin. All cells were maintained at 37° C. in a humidified atmosphere of 5% CO2.
Cell Viability of iPSC's: iPSCs were plated in 6-well plates and incubated for 24 to 48 hours, then media were replaced with fresh one (2 ml) supplemented with PBS (control) 5 (200 μM, 300 μM, and 400 μM), 7 (400 μM) or 9 (400 μM), and incubated for 2 hours. Media were removed and cells were rinsed with PBS once, fresh normal cultural media were added and incubated for 30 min. All cells were collected and stained with trypan blue, live cells were counted using Cellometer Auto 2000 (Nexcelom Bioscience). Data were obtained by from three independent wells (n=3).

Series [6] relates to ALP. Kind of series: Dephosphorylation rate measurement (LC-MS). As to conditions: for conversion ratio to dephosphorylated peptide / half-life at 100 μM / half-life at 200 μM: 0.5 U/mL ALP; for conversion ratio to dephosphorylated peptide: after 5 h of incubation; for half-life at 400 μM / half-life at 100 μM / half-life at 200 μM: alkaline phosphatase (ALP) in PBS; for half-life at 100 μM / half-life at 200 μM: half-life of dephosphorylation. As for the experimental part:
The reaction mixtures were analyzed with LC-MS.
Thus, the conversion of the phosphopentapeptides to their corresponding peptides was examined over time.

For the molecule “4: de-phosphorylated form of 3: NBD-bAla-Leu-Leu-Leu-Tyr (SEQ ID NO: 1) ({NBD}-[βAla]LLLY) [compound 4]”, the self-assembling ability entry in series [1] (formed from 3 upon dephosphorylation by ALP) was “limited self-assembling ability”.

`CC(C)C[C@H](NC(=O)CCNc1ccc([N+](=O)[O-])c2nonc12)C(=O)N[C@@H](CC(C)C)C(=O)N[C@@H](CC(C)C)C(=O)N[C@@H](CC(C)C)C(=O)N[C@@H](Cc1ccc(O)cc1)C(=O)O` [compound 6, NBD-βA-LLLLY] ({NBD-βAla}-LLLLY-OH): the “critical micelle concentration (CMC)” value in series [2] came out at 8.1 µM. Besides, the “6 remaining in HS-5 lysate” value in series [3] (from 200 μM of 5, after 2 h of incubation) was “about 20%”; in series [3] (from 200 μM of 5, after 4 hours incubation), 6.01%.

In the case of `CC(C)C[C@H](NC(=O)[C@H](CC(C)C)NC(=O)[C@H](Cc1ccc(OP(=O)(O)O)cc1)NC(=O)[C@H](CC(C)C)NC(=O)[C@H](CC(C)C)NC(=O)CCNc1ccc([N+](=O)[O-])c2nonc12)C(=O)O` [compound 7, NBD-βA-LLpYLL] ({NBD-βAla}-LL[pY]LL-OH), the “NBD fluorescence in iPSCs (location of peptide assemblies)” value in series [4] is listed as “no fluorescence inside the cells”. Further, the “cytotoxicity against the iPSCs” value in series [5] is “hardly exhibit cytotoxicity”. The molecule also had a diameters of nanofibers in series [1] of 6±2 nm. In series [6], the “conversion ratio to dephosphorylated peptide” value is on record as 61.5%, the half-life at 400 μM stood at 2.09 h, the half-life at 100 μM was 2.12 h and the half-life at 200 μM came out at 1.87 h. Besides, in series [2], the “critical micelle concentration (CMC)” value is given as 159.9 UM and the “CMC of the nanofiber-forming product of dephosphorylation” value amounted to 87.4 µM.

On to `CC(C)C[C@@H](NC(=O)CCNc1ccc([N+](=O)[O-])c2nonc12)C(=O)N[C@H](CC(C)C)C(=O)N[C@H](CC(C)C)C(=O)N[C@H](CC(C)C)C(=O)N[C@@H](Cc1ccc(OP(=O)(O)O)cc1)C(=O)O` [compound 9, NBD-βA-llllpY] ({NBD-βAla}-[dL][dL][dL][dL][pY]-OH), for which the “NBD fluorescence in iPSCs (location of peptide assemblies)” value in series [4] is listed as “most of the cells exhibit no fluorescence inside the cells”. Moreover, the “cytotoxicity against the iPSCs” value in series [5] is given as “hardly exhibit cytotoxicity”. In series [1], this molecule yielded a diameters of nanofibers of 9±2 nm. Besides, in series [6], the “conversion ratio to dephosphorylated peptide” value turned out to be 93.3%, the half-life at 400 μM amounted to 0.45 h, the half-life at 100 μM was 0.41 h and the half-life at 200 μM was found to be 0.36 h. Further, in series [2], the “critical micelle concentration (CMC)” value came to 146.8 µM and the “CMC of the nanofiber-forming product of dephosphorylation” value was 25.8 µM.
